The values below are quoted from earlier work in patent US7842730B2, “Medical emulsion of perfluororganic compounds and method for the production thereof” (priority 2004, dated 2010).

The conditions of series [1]: for Tcritical (critical solution temperature in hexane): Table 1; for Critical solution temperature, (Tcritical): Table 3.
For series [2] the following is noted: for P, vapor pressure: 37°; for Vapor pressure: 37° C., Table 3.
The conditions of series [3]: 37° C.

For `C1CCC2CCCC2C1` (stereo not drawn) [bicyclo[4.3.0]nonane], in series [1], the Tcritical (critical solution temperature in hexane) is 13 °C. Besides, in series [2], the “P, vapor pressure” value was 33 mm QS.
As to `FC(F)(F)C(F)(F)C(F)(F)C(F)(F)C(F)(F)C(F)(F)C(F)(F)C(F)(F)C(F)(F)C(F)(F)Br` [PFDB, Perfluorodecylbromide], the “Critical solution temperature, (Tcritical)” value in series [1] is 7 °C. For the same molecule, the Vapor pressure in series [2] is recorded as 1.5 mm QS.
Take “perfluoromethylcyclohexylpiperidine [PFMHP]”: in series [1], the Tcritical (critical solution temperature in hexane) was 38 °C and the “Critical solution temperature, (Tcritical)” value is 40 °C. In addition, in series [2], the “P, vapor pressure” value is 1 mm QS and the Vapor pressure was 2.0 mm QS. The Oxygen solubility in series [3] is given as 40 ml/100 ml (vol.-%).
Regarding `CCCN1CCCCC1C` (stereo not drawn) [1-propyl-2-methylpiperidine], the Tcritical (critical solution temperature in hexane) in series [1] was 35 °C. For the same molecule, in series [2], the “P, vapor pressure” value is 19 mm QS.
As for `CCCCCCOCCCCCC` [dihexylether], in series [1], the Tcritical (critical solution temperature in hexane) was 59 °C. In addition, the “P, vapor pressure” value in series [2] was 2 mm QS.
Regarding `FC(F)(F)C(F)(F)C(F)(F)N(C(F)(F)C(F)(F)C(F)(F)F)C(F)(F)C(F)(F)C(F)(F)F` [PFTPA, perfluorotripropylamine], in series [1], the Tcritical (critical solution temperature in hexane) was 43 °C and the “Critical solution temperature, (Tcritical)” value was 44 °C. Also, in series [2], the “P, vapor pressure” value is 17 mm QS and the Vapor pressure was 18.0 mm QS. Further, in series [3], the Oxygen solubility is on record as 45 ml/100 ml (vol.-%).
Take `C1CC2CCCC3CCC(C1)C23` (stereo not drawn) [decahydroacenaphthene]: the Tcritical (critical solution temperature in hexane) in series [1] was 24 °C. In addition, in series [2], the “P, vapor pressure” value was 2 mm QS.
In the case of `FC1(F)C(F)(F)C(F)(F)C2(F)C(F)(F)C(F)(F)C(F)(F)C(F)(F)C2(F)C1(F)F` (stereo not drawn) [PFD, perfluorodecaline], the “t1/2 (elimination from the organism)” value was about 170 h. Besides, in series [1], the Tcritical (critical solution temperature in hexane) was 22 °C and the “Critical solution temperature, (Tcritical)” value is 22 °C. Further, in series [2], the “P, vapor pressure” value is on record as 12 mm QS and the Vapor pressure is on record as 12.7 mm QS. The Oxygen solubility in series [3] is 40 ml/100 ml (vol.-%).
As for `FC(F)(F)C(F)(F)C(F)(F)C(F)(F)C(F)(F)C(F)(F)C(F)(F)C(F)(F)Br` [PFOB, perfluorooctylbromide], the “t1/2 (elimination from the organism)” value is about 96 h. In series [1], the “Critical solution temperature, (Tcritical)” value is −20 °C. For the same molecule, the Vapor pressure in series [2] was 10.5 mm QS. Also, the Oxygen solubility in series [3] is reported as 53 ml/100 ml (vol.-%).
